The text below walks through data of patent US20070155764A1, “NOVEL SUBSTITUTED PYRIMIDINYLOXY UREAS USEFUL AS INHIBITORS OF PROTEIN KINASES” (KALYPSYS, INC., priority 2005, published 2007).

The term IC50 denotes the concentration needed to halve the response being measured.

The structures appear in SMILES notation. Where only a bound is given, the exact number is not on record here.

Common to all, as to format: biochemical
Assay [1] concerns the target T1, human B-Raf protein kinase (Homo sapiens, UniProt P15056).
T1 construct: GST (N); purchased Upstate Inc. 14-530 (B-Raf); 14-420 (Mek1)
In words: In vitro B-Raf/Mek1 composite kinase assay. The note with it: recombinant GST-tagged human B-Raf (Δ1-415) with inactive Mek1, 2 μM ATP. The protocol: In Vitro B-Raf/Mek1 Composite Kinase Assay
2.5 μl of B-Raf kinase buffer (20 mM MOPS [pH 7.2], 25 mM sodium glycerophosphate, 2 mM EGTA [pH 8.0], 1 mM sodium orthovanadate, 1 mM dithiothreitol, 10 mM MgCl2, 0.03% Brij-35, 0.3 mg/ml bovine serum albumin) containing 1 ng of recombinant, N-terminal GST-tagged human B-Raf protein kinase (Δ1-415, Upstate Inc., cat. #14-530) is dispensed to wells of a 1536 multi-well white solid plate. 60 nl of 100× concentration of test compound in DMSO is dispensed to the well by passive pin transfer and incubated for 15 minutes at room temperature (approx. 22° C.). […] The assay plates are sealed and maintained in a humidified environment. After 2 hours, 2.5 μl of PKLight protein kinase assay reagent (Cambrex, cat. #LT07-501) is dispensed. After an additional 5 minute incubation at room temperature, luminescence activity is measured on a Molecular Devices Analyst multi-mode plate reader or other suitable plate reader. Kinase inhibition results in less ATP depletion, and therefore increased luminescence signal. Negative control activity is measured with DMSO lacking any test compound. The positive control is [N-(3-trifluoromethyl-4-chlorophenyl)-N′-(4-(2-methylcarbamoyl-pyridin-4-yl)oxyphenyl)urea], aka Bay 43-9006. Efficacy is measured as a percentage of positive control activity.

Assay [2] has as its target T2, VEGFR2 kinase (Homo sapiens, UniProt P35968).
T2 construct: purchased Invitrogen Inc PV3660
Kind of assay: In vitro VEGFR2 kinase assay. As to conditions: ADP Quest assay, poly Glu:Tyr substrate, 60 μM ATP. As to the method: (§1) In vitro vegfr2 and PDGFRβ Kinase Assays
(§2) 2.5 μl of ADP Quest assay buffer (DiscoverX Inc., cat. #90-0071) containing 20 ng VEGFR2 kinase (Invitrogen Inc, cat. #PV3660) or 25 ng PDGFRβ kinase (Invitrogen Inc., cat. #P3082) is dispensed to wells of a 1536 multi-well, black solid plate. 60 nl of 100× concentration of test compound in DMSO is dispensed to the well by passive pin transfer and incubated for 10 minutes at room temperature (approx. 22° C.). 2.5 μl of ADP Quest assay buffer containing 0.25 μg of poly Glu:Tyr (4:1) substrate peptide (Upstate Inc., cat. #12-440) and 60 μM ATP is then dispensed and the kinase reaction allowed to incubate at 30° C. for 2 hours. The assay plates are sealed and maintained in a humidified environment. After the 2 hour incubation, 2 μl of ADP Quest assay reagent A, followed by 2 μl of assay reagent B, is added. After an additional 30 minute incubation at room temperature, fluorescence intensity is measured on a Molecular Devices Aquest multi-mode plate reader or other suitable plate reader (fluorescence excitation filter: 530/25 [Peak (nm)/FWHM passband (nm)]; dichroic beamsplitter: 561 nm longpass; fluorescence emission filter: 580/10 [Peak (nm)/FWHM passband (nm)]. The assay measures the conversion of a non-fluoresecent molecule to fluorescent resorutin, which correlates with kinase activity. Negative control activity is measured with DMSO lacking any test compound. The positive control is [N-(3-trifluoromethyl-4-chlorophenyl)-N′-(4-(2-methylcarbamoyl-pyridin-4-yl)oxyphenyl)urea], aka Bay 43-9006. Efficacy is measured as a percentage of positive control activity.

For assay [3], the target named is T3, PDGFRβ kinase (Homo sapiens, UniProt P09619).
T3 construct: purchased Invitrogen Inc. P3082
T3 sequence (P09619 33-1106): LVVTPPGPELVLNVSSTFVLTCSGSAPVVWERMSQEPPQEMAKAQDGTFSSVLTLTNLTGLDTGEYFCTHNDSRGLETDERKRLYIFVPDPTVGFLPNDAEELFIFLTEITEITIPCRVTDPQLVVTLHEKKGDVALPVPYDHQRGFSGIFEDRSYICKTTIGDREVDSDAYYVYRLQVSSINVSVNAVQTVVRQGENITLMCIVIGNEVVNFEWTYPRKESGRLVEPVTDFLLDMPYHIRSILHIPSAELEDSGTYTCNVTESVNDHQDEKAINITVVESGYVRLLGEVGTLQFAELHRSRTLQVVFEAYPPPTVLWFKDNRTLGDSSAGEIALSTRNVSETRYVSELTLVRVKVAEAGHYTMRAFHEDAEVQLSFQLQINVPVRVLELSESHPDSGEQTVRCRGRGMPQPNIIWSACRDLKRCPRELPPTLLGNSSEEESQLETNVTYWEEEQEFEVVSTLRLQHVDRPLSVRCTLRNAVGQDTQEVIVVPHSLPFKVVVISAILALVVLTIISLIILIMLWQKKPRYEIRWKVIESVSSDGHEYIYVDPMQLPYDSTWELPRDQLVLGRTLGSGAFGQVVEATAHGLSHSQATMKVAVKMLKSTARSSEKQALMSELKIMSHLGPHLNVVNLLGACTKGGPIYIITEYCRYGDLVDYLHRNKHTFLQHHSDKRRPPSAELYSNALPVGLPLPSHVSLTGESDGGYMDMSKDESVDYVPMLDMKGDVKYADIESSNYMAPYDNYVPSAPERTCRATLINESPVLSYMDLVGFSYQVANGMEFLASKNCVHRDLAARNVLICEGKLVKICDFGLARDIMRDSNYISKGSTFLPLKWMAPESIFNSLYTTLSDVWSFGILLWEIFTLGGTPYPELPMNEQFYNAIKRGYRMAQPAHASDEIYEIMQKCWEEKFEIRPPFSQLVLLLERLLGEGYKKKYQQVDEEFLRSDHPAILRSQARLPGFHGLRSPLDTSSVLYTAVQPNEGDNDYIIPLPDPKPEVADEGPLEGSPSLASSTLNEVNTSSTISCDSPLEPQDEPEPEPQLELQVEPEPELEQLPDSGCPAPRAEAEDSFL
Kind of assay: In vitro PDGFRβ kinase assay. The note with it: ADP Quest assay, poly Glu:Tyr substrate, 60 μM ATP. As to the method:
as §1, §2

T1 sequence (P15056 416-766): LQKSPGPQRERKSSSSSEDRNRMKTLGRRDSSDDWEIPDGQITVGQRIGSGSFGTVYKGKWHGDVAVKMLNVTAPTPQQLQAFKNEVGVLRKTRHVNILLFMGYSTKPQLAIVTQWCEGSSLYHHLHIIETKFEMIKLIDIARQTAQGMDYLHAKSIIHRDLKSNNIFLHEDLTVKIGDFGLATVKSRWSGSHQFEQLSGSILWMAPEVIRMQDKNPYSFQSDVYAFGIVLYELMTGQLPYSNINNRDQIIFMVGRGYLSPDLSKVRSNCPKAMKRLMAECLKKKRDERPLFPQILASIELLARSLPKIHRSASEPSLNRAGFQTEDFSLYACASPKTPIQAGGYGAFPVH
T2 sequence (P35968 20-1356): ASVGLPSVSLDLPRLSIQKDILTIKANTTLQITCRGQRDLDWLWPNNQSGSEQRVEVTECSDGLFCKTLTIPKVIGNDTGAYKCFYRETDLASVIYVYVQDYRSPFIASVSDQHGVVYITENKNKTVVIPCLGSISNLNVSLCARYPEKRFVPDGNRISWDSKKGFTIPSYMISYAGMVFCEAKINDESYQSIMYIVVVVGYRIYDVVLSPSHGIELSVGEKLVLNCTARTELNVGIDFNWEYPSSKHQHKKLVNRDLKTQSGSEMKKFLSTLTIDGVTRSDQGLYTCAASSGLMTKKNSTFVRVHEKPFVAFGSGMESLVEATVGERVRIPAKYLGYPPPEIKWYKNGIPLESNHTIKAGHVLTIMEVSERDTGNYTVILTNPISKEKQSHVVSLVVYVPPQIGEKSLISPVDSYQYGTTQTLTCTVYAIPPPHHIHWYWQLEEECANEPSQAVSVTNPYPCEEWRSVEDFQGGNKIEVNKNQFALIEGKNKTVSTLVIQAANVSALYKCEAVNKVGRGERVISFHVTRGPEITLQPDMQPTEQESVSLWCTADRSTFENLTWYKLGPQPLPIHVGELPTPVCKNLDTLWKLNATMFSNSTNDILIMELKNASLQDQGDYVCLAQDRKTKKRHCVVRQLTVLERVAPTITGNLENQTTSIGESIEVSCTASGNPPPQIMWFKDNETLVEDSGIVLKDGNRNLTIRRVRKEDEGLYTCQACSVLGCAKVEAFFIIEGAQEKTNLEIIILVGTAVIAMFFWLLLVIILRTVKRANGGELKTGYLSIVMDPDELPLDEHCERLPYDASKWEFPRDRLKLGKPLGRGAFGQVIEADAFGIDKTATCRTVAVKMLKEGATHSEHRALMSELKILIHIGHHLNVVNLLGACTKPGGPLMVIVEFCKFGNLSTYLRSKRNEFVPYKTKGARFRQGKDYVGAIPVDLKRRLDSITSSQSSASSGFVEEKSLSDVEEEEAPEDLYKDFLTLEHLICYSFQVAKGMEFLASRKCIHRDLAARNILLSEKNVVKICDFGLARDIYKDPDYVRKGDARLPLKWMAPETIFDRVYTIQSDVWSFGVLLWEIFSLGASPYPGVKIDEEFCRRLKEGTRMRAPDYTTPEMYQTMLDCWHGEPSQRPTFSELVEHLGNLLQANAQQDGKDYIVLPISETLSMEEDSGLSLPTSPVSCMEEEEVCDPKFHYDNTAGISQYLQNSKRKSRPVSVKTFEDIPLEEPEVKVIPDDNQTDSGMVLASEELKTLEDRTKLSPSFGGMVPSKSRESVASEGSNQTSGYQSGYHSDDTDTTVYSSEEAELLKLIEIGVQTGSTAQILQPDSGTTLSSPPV

On to `Cn1nnnc1-c1cc(Oc2cccc(NC(=O)Nc3ccc(Cl)c(C(F)(F)F)c3)c2)ncn1` [Example 21, 1-(4-chloro-3-(trifluoromethyl)phenyl)-3-(3-(6-(1-methyl-1H-tetrazol-5-yl)pyrimidin-4-yloxy)phenyl)urea], for which the 50% inhibitory concentration (IC50) in assay [1], in assay [2] and in assay [3] was no more than 10 µM in each case.
Turning to `O=C(Nc1ccc(Oc2cc(-c3ncn[nH]3)ncn2)cc1)Nc1ccc(Cl)c(C(F)(F)F)c1` [Example 22, 1-(4-(6-(1H-1,2,4-Triazol-5-yl)pyrimidin-4-yloxy)phenyl)-3-(4-chloro-3-(trifluoromethyl)phenyl)urea], the IC50 in assay [1], in assay [2] and in assay [3] was no more than 10 µM in each case.
As to `Cn1ncnc1-c1cc(Oc2ccc(NC(=O)Nc3ccc(Cl)c(C(F)(F)F)c3)cc2)ncn1` [Example 23, 1-(4-Chloro-3-(trifluoromethyl)phenyl)-3-(4-(6-(1-methyl-1H-1,2,4-triazol-5-yl)pyrimidin-4-yloxy)phenyl)urea], the IC50 in assay [1], in assay [2] and in assay [3] was no more than 10 µM in each case.
In the case of `CN1CCN(Cc2cc(NC(=O)Nc3cccc(Oc4cc(-c5nnco5)ncn4)c3)cc(C(F)(F)F)c2)CC1` [Example 24, 1-(3-(6-(1,3,4-Oxadiazol-2-yl)pyrimidin-4-yloxy)phenyl)-3-(3-((4-methylpiperazin-1-yl)methyl)-5-(trifluoromethyl)phenyl)urea], the concentration for half-maximal inhibition (IC50) in assay [1], in assay [2] and in assay [3] was no more than 10 µM in each case.
Regarding `CCN(CC)Cc1cc(NC(=O)Nc2cccc(Oc3cc(-c4nnco4)ncn3)c2)cc(C(F)(F)F)c1` [Example 25, 1-(3-(6-(1,3,4-Oxadiazol-2-yl)pyrimidin-4-yloxy)phenyl)-3-(3-((diethylamino)methyl)-5-(trifluoromethyl)phenyl)urea], the IC50 in assay [1], in assay [2] and in assay [3] was no more than 10 µM in each case.
As for `O=C(Nc1cccc(Oc2cc(-c3nnco3)ncn2)c1)Nc1cc(C(F)(F)F)c(Cl)cc1OCCN1CCCC1` [Example 26, 1-(3-(6-(1,3,4-Oxadiazol-2-yl)pyrimidin-4-yloxy)phenyl)-3-(4-chloro-2-(2-(pyrrolidin-1-yl)ethoxy)-5-(trifluoromethyl)phenyl)urea], the IC50 in assay [1], in assay [2] and in assay [3] was no more than 10 µM each time.
For the molecule `O=C(Nc1cccc(Oc2cc(-c3ccc[nH]3)ncn2)c1)Nc1ccc(Cl)c(C(F)(F)F)c1` [Example 27, 1-(3-(6-(1H-Pyrrol-2-yl)pyrimidin-4-yloxy)phenyl)-3-(4-chloro-3-(trifluoromethyl)phenyl)urea], the IC50 in assay [1], in assay [2] and in assay [3] was no more than 10 µM each time.
For `O=C(Nc1ccc(Oc2cc(-c3ccc[nH]3)ncn2)cc1)Nc1ccc(Cl)c(C(F)(F)F)c1` [Example 28, 1-(4-(6-(1H-Pyrrol-2-yl)pyrimidin-4-yloxy)phenyl)-3-(4-chloro-3-(trifluoromethyl)phenyl)urea], the IC50 in assay [1], in assay [2] and in assay [3] was no more than 10 µM in each case.
As to `Cc1nc(C)c(-c2cc(Oc3cccc(NC(=O)Nc4ccc(Cl)c(C(F)(F)F)c4)c3)ncn2)s1` [Example 29, 1-(4-Chloro-3-(trifluoromethyl)phenyl)-3-(3-(6-(2,4-dimethylthiazol-5-yl)pyrimidin-4-yloxy)phenyl)urea], the IC50 in assay [1], in assay [2] and in assay [3] was no more than 10 µM each time.
As for `Cc1nc(C)c(-c2cc(Oc3ccc(NC(=O)Nc4ccc(Cl)c(C(F)(F)F)c4)cc3)ncn2)s1` [Example 30, 1-(4-Chloro-3-(trifluoromethyl)phenyl)-3-(4-(6-(2,4-dimethylthiazol-5-yl)pyrimidin-4-yloxy)phenyl)urea], the IC50 in assay [1] was greater than 10 µM; in assay [2] it was no more than 10 µM; in assay [3] it was no more than 10 µM.
For the molecule `O=C(Nc1ccc(Oc2cc(-c3nnco3)ncn2)cc1)Nc1cc(C(F)(F)F)c(Cl)cc1OCCN1CCCC1` [Example 31, 1-(4-(6-(1,3,4-Oxadiazol-2-yl)pyrimidin-4-yloxy)phenyl)-3-(4-chloro-2-(2-(pyrrolidin-1-yl)ethoxy)-5-(trifluoromethyl)phenyl)urea], the IC50 in assay [1], in assay [2] and in assay [3] was no more than 10 µM throughout.
With `CCN(CC)CCNC(=O)c1cc(NC(=O)Nc2cccc(Oc3cc(-c4nnco4)ncn3)c2)cc(C(F)(F)F)c1` [Example 32, 3-(3-(3-(6-(1,3,4-Oxadiazol-2-yl)pyrimidin-4-yloxy)phenyl)ureido)-N-(2-(diethylamino)ethyl)-5-(trifluoromethyl)benzamide], the IC50 in assay [1], in assay [2] and in assay [3] was no more than 10 µM throughout.
With `O=C(Nc1cccc(Oc2cc(-c3nnco3)ncn2)c1)Nc1cc(CN2CCOCC2)cc(C(F)(F)F)c1` [Example 33, 1-(3-(6-(1,3,4-Oxadiazol-2-yl)pyrimidin-4-yloxy)phenyl)-3-(3-(morpholinomethyl)-5-(trifluoromethyl)phenyl)urea], the IC50 in assay [1], in assay [2] and in assay [3] was no more than 10 µM each time.
With `Cn1cc(-c2cc(Oc3ccc(NC(=O)Nc4ccc(Cl)c(C(F)(F)F)c4)cc3)ncn2)cn1` [Example 35, 1-(4-Chloro-3-(trifluoromethyl)phenyl)-3-(4-(6-(1-methyl-1H-pyrazol-4-yl)pyrimidin-4-yloxy)phenyl)urea], the half-maximal inhibitory concentration (IC50) in assay [1], in assay [2] and in assay [3] was no more than 10 µM in each case.
As for `CN1CCN(Cc2cc(NC(=O)Nc3cccc(Oc4cc(-c5ncco5)ncn4)c3)cc(C(F)(F)F)c2)CC1` [Example 36, 1-(3-((4-Methylpiperazin-1-yl)methyl)-5-(trifluoromethyl)phenyl)-3-(3-(6-(oxazol-2-yl)pyrimidin-4-yloxy)phenyl)urea], the IC50 in assay [1] was no more than 10 µM; in assay [2], greater than 10 µM; in assay [3], no more than 10 µM.
In the case of `O=C(Nc1cccc(Oc2ccnc(-c3nnco3)c2)c1)Nc1cc(C(F)(F)F)c(Cl)cc1OCCN1CCCC1` [Example 37, 1-(3-(2-(1,3,4-Oxadiazol-2-yl)pyridin-4-yloxy)phenyl)-3-(4-chloro-2-(2-(pyrrolidin-1-yl)ethoxy)-5-(trifluoromethyl)phenyl)urea], the half-maximal inhibitory concentration (IC50) in assay [1], in assay [2] and in assay [3] was no more than 10 µM each time.
As for `CN1CCN(Cc2cc(NC(=O)Nc3cccc(Oc4ccnc(-c5nnco5)c4)c3)cc(C(F)(F)F)c2)CC1` [Example 38, 1-(3-(2-(1,3,4-Oxadiazol-2-yl)pyridin-4-yloxy)phenyl)-3-(3-((4-methylpiperazin-1-yl)methyl)-5-(trifluoromethyl)phenyl)urea], the half-maximal inhibitory concentration (IC50) in assay [1], in assay [2] and in assay [3] was no more than 10 µM in each case.
For `CN1CCN(Cc2cc(NC(=O)Nc3ccc(Oc4ccnc(-c5nnco5)c4)cc3)cc(C(F)(F)F)c2)CC1` [Example 39, 1-(4-(2-(1,3,4-Oxadiazol-2-yl)pyridin-4-yloxy)phenyl)-3-(3-((4-methylpiperazin-1-yl)methyl)-5-(trifluoromethyl)phenyl)urea], the IC50 in assay [1], in assay [2] and in assay [3] was no more than 10 µM in each case.
Turning to `O=C(Nc1cccc(Oc2cc(-c3ccn[nH]3)ncn2)c1)Nc1ccc(Cl)c(C(F)(F)F)c1` [Example 40, 1-(3-(6-(1H-Pyrazol-5-yl)pyrimidin-4-yloxy)phenyl)-3-(4-chloro-3-(trifluoromethyl)phenyl)urea], the IC50 in assay [1], in assay [2] and in assay [3] was no more than 10 µM in each case.
